Data reported in paper PMC10726441, “Discovery of Tumor-Targeted 6-Methyl Substituted Pemetrexed and Related Antifolates with Selective Loss of RFC Transport” (ACS Medicinal Chemistry Letters, 2023).
Entries after “also recorded” stand apart in the source; their conditions may differ.

Tested on: KB tumor cells; thymidylate and de novo purine nucleotide biosynthesis
Assay: Metabolite protection experiments in KB cells (thymidine, adenosine, glycine, AICA)
Format: cell-based, human
Conditions: for targeted pathway from metabolite protection (in words): thymidine 10 μM, adenosine 60 μM, glycine 130 μM, AICA 320 μM
Experimental: To identify the targeted pathways/enzymes of these pyrrolo[2,3-d]pyrimidine compounds (1, 2, 4–8), in vitro growth inhibition assays were performed with KB tumor cells in glycine-, adenosine-, and thymidine-free media without additions or in the presence of thymidine (10 μM), adenosine (60 μM), or glycine (130 μM) (both singly and in various combinations; Figure 4).[18],[23]−[25],[28]−[31],[42],[44],[45] For de novo purine biosynthesis inhibitors, protection was also tested with AICA (320 μM), which is metabolized to AICA ribonucleotide (substrate for the AICARFTase reaction, thus circumventing GARFTase).
Figure 4 Metabolite protection experiments. […] Cell densities were measured with a fluorescence assay[25] and a fluorescence plate reader. Results were normalized to cell densities in the absence of drug. Results shown are mean values plus/minus standard errors from triplicate experiments. Experimental details are described in the Supporting Information, and the methods have been previously published.[18],[23]−[25],[28]−[31],[42],[44]
(Vancouver, B.C). IGROV1, KB and IOSE 7576 cells were cultured in complete FF-RPMI with 10% fetal bovine serum and 100 units/mL penicillin/100 μg/mL streptomycin, and 2 mM L-glutamine. Cell lines were tested for Mycoplasma by PCR using a Mycloplasma testing kit (Venor™ GeM Mycoplasma Detection Kit, Sigma). Frozen stocks were generated from authenticated Mycoplasma-free cultures.
For cell proliferation assays, CHO, KB, NCI-IGROV1 and IOSE 7576 cells were plated in 96-well dishes at densities ranging from 2500-5000 cells/well in 200 μL media and treated with a range of inhibitors spanning 0-1000 nM. Experiments with RT16, D4, IGROV1, IOSE 7576 and KB cells used folate-free RPMI 1640 (FF RPMI) media with 10% dialyzed fetal bovine serum and 100 units/mL penicillin/100 μg/mL streptomycin, supplemented with 2 nM leucovorin and 2 mM L-glutamine. FR-mediated drug uptake was assessed in parallel incubations including 200 nM folic acid. For R2/PCFT4, PC43-10 and R2 CHO cells, the medium was FF-RPMI supplemented with 10% dialyzed fetal bovine serum, 100 units/mL penicillin/100 μg/mL streptomycin, 25 nM leucovorin and 2 mM L-glutamine.
Cells were treated over a 96 h period at 37° C with 5% CO2 and relative cell numbers quantified using the CellTiter-blue cell viability assay (Promega, Madison, WI) and a fluorescence plate reader. Raw data were exported to Excel for analysis and the results were plotted using Graphpad Prism 6.0. Determinations of IC50s were made […]
assays have been previously described.7, 8, 11, 12, 15-20 […]

Structure (SMILES) | protection by glycine / mitochondrial C1 metabolism (in words) (glycine 130 μM added to adenosine and thymidine) | targeted pathway from metabolite protection (in words)
Nc1nc2[nH]cc(CCCc3ccc(C(=O)N[C@@H](CCC(=O)O)C(=O)O)cc3)c2c(=O)[nH]1 [Compound 2] | addition of glycine provided greater protection than did adenosine and thymidine alone; also recorded: inhibition of mitochondrial C1 metabolism was also suggested | inhibited both thymidylate and purine nucleotide biosynthesis
Nc1nc2[nH]cc(CCc3ccc(C(=O)N[C@@H](CCC(=O)O)C(=O)O)c(F)c3)c2c(=O)[nH]1 [Compound 4] |  | inhibited both thymidylate and purine nucleotide biosynthesis
Nc1nc2[nH]cc(CCc3ccc(C(=O)N[C@@H](CCC(=O)O)C(=O)O)cc3)c2c(=O)[nH]1 [Compound 1, reference compound] |  | inhibited both thymidylate and purine nucleotide biosynthesis
